Test [1] concerns HL-60 cells. Description: Cell cycle analysis by PI flow cytometry. The class given is cell-based, human. As to conditions: 1 µM. The method, then:
HL-60 cells were seeded at a density of 1 × 10^5 cells/well in 6-well plates and treated with CA-4 and compound BI9 (1 µM) for 48 and 72 h. The cells were collected by trypsinization and centrifuged at 800× g for 15 min. Cells were washed twice with ice-cold PBS and fixed in ice-cold 70% ethanol overnight at −20 °C. Fixed cells were centrifuged at 800× g for 15 min and stained with 50 μg/mL of PI, containing 50 μg/mL of DNase-free RNase A, at 37 °C for 30 min. The DNA content of cells (10,000 cells/experimental group) was analysed by flow cytometer at 488 nm using a FACSCalibur flow cytometer (BD Biosciences, San Jose, CA, USA) and all data were recorded and analysed using the CellQuest Software (Becton-Dickinson).
For orientation: Flow cytometry measures light scatter and fluorescence of single cells or particles in a stream.

The subject of the next test is bovine brain tubulin. Kind of test: Tubulin polymerization assay (turbidimetric, kit BK006). Type of test: biochemical. The note with it: read-out: Anti-Tubulin Activity IC50 ± SD (inhibition of tubulin polymerization). As for the experimental part:
The assembly of purified bovine tubulin was monitored using a kit, BK006, purchased from Cytoskeleton Inc., (Denver, CO, USA). The assay was carried out in accordance with the manufacturer’s instructions using the standard assay conditions. Briefly, purified ([…]) in a buffer consisting of 80 mM PIPES (pH 6.9), 0.5 mM EGTA, 2 mM MgCl2, 1 mM GTP and 10% glycerol was incubated at 37 °C in the presence of either vehicle (2% (v/v) ddH2O), CA-4, benzotriazole compounds. Light was scattered proportionally to the concentration of polymerized microtubules in the assay. Therefore, the tubulin assembly was monitored turbidimetrically at 340 nm in a Spectramax 340 PC spectrophotometer (Molecular Devices, Sunnyvale, CA, USA). The concentration that inhibits tubulin polymerization by 50% (IC50) was determined using area under the curve (AUC). The AUC of the untreated controls were considered as 100% polymerization. The IC50 value for each compound was computed using GraphPad Prism Software.

Test [2] has as its system HL-60 cells. Description: Annexin V/PI apoptotic assay by flow cytometry. The class given is cell-based, human. As to conditions: BI9 1 µM, CA-4 concentration not given, control 1.6%. The method, then:
Apoptotic cell death was detected by flow cytometry using Annexin V and propidium iodide (PI). HL-60 Cells were seeded in 6 well plated at density of 1 × 10^5 cells/mL and treated with vehicle (0.1% (v/v) EtOH), positive control (CA-4) or compound BI9 (1 µM) for 48 and 72 h. Cells were then harvested and prepared for flow cytometric analysis. Cells were washed in 1X binding buffer ([…] binding buffer: 0.1M HEPES, pH 7.4; 1.4 M NaCl; 25 mM CaCl2 diluted in dH2O) and incubated in the dark for 30 min on ice in Annexin V-containing binding buffer [1:100]. Cells were then washed once in binding buffer and then re-suspended in PI-containing binding buffer [1:1000]. Samples were analysed immediately using the BD accuri flow cytometer and prism software for analysis the data. Four populations are produced during the assay Annexin V and PI negative (Q4, healthy cells), Annexin V positive and PI negative (Q3, early apoptosis), Annexin V and PI positive (Q2, late apoptosis) and Annexin V negative and PI positive (Q1, necrosis).

Test [3] concerns colchicine binding site of tubulin. Kind of test: Colchicine site competitive binding assay ([3H]colchicine). The note with it: tubulin and colchicine at 1 and 5 µM. As for the experimental part: The affinity of Benzotriazole compounds to colchicine binding site was determined using a Colchicine Site Competitive Assay kit CytoDYNAMIX Screen15 (Cytoskeleton, Inc., Denver, CO, USA) using the standard protocol of the manufacturer to determine Ki values (μM). Biotin-labelled tubulin ([…]) and the test compounds (positive control colchicine, negative control vinblastine, G-1, fluorescent G-1, or 2-ME) in a 96-well plate (final volume: 100 μL). After incubating for 2 h at 37 °C with gentle shaking, streptavidin-labelled yttrium SPA beads (80 μg in 20 μL reaction buffer, PerkinElmer, Waltham, MA) were added to each well and incubated for 30 min at 4 °C. The plates were then read on a scintillation counter (Packard Instrument, Topcount Microplate Reader) and the percentage of inhibition was calculated.

The subject of test [4] is MCF-7, HL-60 and HCT-116 cancer cell lines. Description: MTT viability assay, values pooled over the cancer cell lines. The class given is cell-based, human. The note with it: Homo sapiens, MCF-7, HL-60 and HCT-116; MTT; read-out: IC50 values range over the three cancer cell lines. The method, then: (§1) All the human tumour cell lines MCF-7, HL-60, HCT-116, and HUVEC were cultured in Dulbecco’s Modified Eagle’s Medium (DMEM) with 10% fetal bovine serum, 2 mM L-glutamine and 100 µg/mL penicillin/streptomycin. Cells were maintained at 37 °C in 5% CO2 in a humidified incubator. All cells were sub-cultured three times/week by trypsinization using TrypLE Express (1X).
(§2) The Benzotriazole compounds were evaluated for antiproliferative effect using the MTT viability assay of various cancer cell lines (MCF-7, HCT-116 and HL-60) and the normal human umbilical vein endothelial cell line (HUVEC) to calculate the relative IC50 values for each compound. Cells were seeded in triplicate in 96-well plates at a density of 10 × 10^3 cells/mL in a total volume of 200 µL per well. 0.1% of DMSO was used as a vehicle control. After this time, they were treated with 2 µL test compound which had been pre-prepared as stock solutions in ethanol to furnish the concentration range of study, 10 nM to 100 µM, and re-incubated for a further 72 h. The culture medium was then removed, and the cells washed with 100 µL phosphate buffered saline (PBS) and 50 µL MTT added, to reach a final concentration of 1 mg/mL MTT added. Cells were incubated for 2 h in darkness at 37 °C. At this point solubilisation was begun through the addition of […] DMSO and the cells maintained at room temperature in darkness for 20 min to ensure thorough colour diffusion before reading the absorbance. Plates were incubated for 72 h at 37 °C + 5% CO2. The MTT (5 mg/mL in PBS) was added and incubated for another 4 h, and the optical density was detected with a microplate reader at 570 nm. Results were expressed as percentage viability relative to vehicle control (100%). Dose response curves were plotted and IC50 values (concentration of drug resulting in 50% reduction in cell survival) were obtained using the commercial software package Prism (GraphPad Software, Inc., La Jolla, CA, USA). All the experiments were repeated in at least three independent experiments.
On the technique in general: Tetrazolium assays rely on reduction of a dye to a coloured formazan, in cell work by metabolically active cells.

The subject of test [5] is MCF-7 human breast cancer cell line. Description: MTT viability assay, MCF-7. Type of test: cell-based. As to conditions: Homo sapiens, MCF7, 72 h, mean ± SD of three independent experiments, read-out: Antiproliferative Activities IC50, MCF-7. The method, then: as §1, §2

The values below come from publication PMC8512560, “Design, Synthesis, and Antipoliferative Activities of Novel Substituted Imidazole-Thione Linked Benzotriazole Derivatives” (Molecules, 2021).

“And” between values parts separate entries of the source, which are not always exact repeats. Equal entries are not always repeated.

One may read the IC50 as the midpoint of a concentration-inhibition curve. Turning to `S=c1[nH]c(-n2nnc3ccccc32)cn1-c1ccc(Cl)cc1Cl` [BI9, 4-(1H-Benzo[d][1,2,3]Triazol-1-yl)-1-(2,4-Dichlorophenyl)-1H-Imidazole-2(3H)-Thione], the “Proportion of HL-60 cells in G2/M phase” value with HL-60 cells [1] (48 h) was found to be 32.3%; in the test with HL-60 cells [1] (72 h), 35.1%. For the same compound, the “Population in the sub-G1 phase (apoptosis)” value is on record as 23.1% with HL-60 cells [1] (48 h, untreated cells 1.5%) and 27.5% with HL-60 cells [1] (72 h, untreated cells 3.5%). For the same compound, the concentration for half-maximal inhibition (IC50) with bovine brain tubulin is 520 ± 20 nM; in test [4] it was 400 to 3300 nM; in test [5] it was 3570 ± 160 nM. In addition, the “Total fraction of early and late apoptotic cells (Annexin V positive)” value with HL-60 cells [2] (48 h) amounted to 21.5%. Moreover, the “Average fraction of Annexin V-staining positive cells (total apoptotic cells)” value with HL-60 cells [2] (72 h) came to 19.2%. For the same compound, the “Colchicine Binding % ± SD (inhibition of [3H]colchicine binding), 1 µM Drug” value in test [3] (1 µM drug) is 49% and 49.38 ± 2%. The “Colchicine Binding % ± SD (inhibition of [3H]colchicine binding), 5 µM Drug” value in test [3] (5 µM drug) was 66% and 66.57 ± 2%.
